Laboratory results published in PubChem BioAssay AID651889 (Broad Institute, 2012).
The source made the active and inactive calls.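 How the source made its calls: active means IC50 under 25 times the IC50 of the reference antimalarial drug in the parasite growth test; inactive means the rest.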

Tested on: P. falciparum NF54 in erythrocytes, 3H-hypoxanthine incorporation, 72 h
Assay: antimalarial activity against erythrocytic parasites – NF54 strain, plate reader, dry powder, dose response (AID 651889)

SMILES: C[C@@H]1CN([C@@H](C)CO)C(=O)c2cccc(NC(=O)c3ccncc3)c2O[C@H]1CN(C)Cc1ccc(Oc2ccccc2)cc1
- IC50: 580 nM (inactive)
